Here are results for two compounds from paper PMC10747430, “^99mTc-Labeled Cyclic Peptide Targeting PD-L1 as a Novel Nuclear Imaging Probe” (Pharmaceutics, 2023).

In series [1] the test system is lesions and adenopathies with high metabolic activity. Nature of the series: [18F]FDG PET/CT imaging in a patient. Set-up: key: Lesions and adenopathies positive for high metabolic activity were detected with [^18F]FDG (✓). The format is in vivo, human. The text has this:
A person (weight 60 kg; height 168 cm) diagnosed with advanced plantar malignant melanoma was enrolled in this study (Ethics Committee: Protocol No. 2023-MN02). The trial was approved based on the microdose concept and proof-of-concept studies. In addition, the ethical standards of the INCan Hospital based on the Declaration of Helsinki regarding human experimentation and the GMP certificate granted to ININ by the Mexican Ministry of Health were taken into account. The patient signed an informed consent form after receiving detailed information about the purpose of the study, which could help decide on treatment and monitor disease progression.
Table 2 provides a detailed analysis of the molecular imaging findings obtained in the [^99mTc]Tc-iPD-L1 SPECT/CT and [^18F]FDG/PET studies.

Series [2] in a line: Serum protein binding. The class given is in vitro ADME. To be noted: human serum (diluted 5x), 37 °C, size-exclusion radio-HPLC, n = 3. Here is the method:
(§1) The stability of [^99mTc]Tc-iPD-L1 and [^99mTc]Tc-WL12 was evaluated by diluting the samples in human serum (5x). The radiopharmaceuticals (n = 3) were heated at 37 °C and analyzed at 0.5, 3, and 24 h for radiochemical purity by size-exclusion radio-HPLC (ProteinPak 300SW, Waters Corporation, Milford, CT, USA).
(§2) The radioactivity from [^99mTc]Tc-iPD-L1 bound to serum proteins was 1.3 ± 0.8% at 30 min, 3.2 ± 1.3% at 3 h, and 7.6 ± 1.9% at 24 h. High radiochemical stability (>90% at 24 h) was also observed. In the case of [^99mTc]Tc-WL12, protein binding was 1.0 ± 0.4% at 30 min, 3.3 ± 0.9% at 3 h, and 6.0 ± 1.3% at 24 h, with a radiochemical purity of >90% at 24 h. Therefore, there was no significant difference […] in protein binding and serum stability between the radiotracers.
Background: In gel filtration, larger molecules generally elute earlier.

Series [3] is described as follows: Stability in human serum. The class given is in vitro ADME. Conditions: human serum (diluted 5x), 37 °C, n = 3. Here is the method:
as §1, §2

In series [4] the test system is HCC827 lung cancer tumors. Nature of the series: Biodistribution in mice bearing HCC827 tumors. The class given is in vivo, mouse. Conditions: mice bearing HCC827 tumors. Here is the method: All animal procedures were performed following the Institutional Animal Care and Use Committee requirements under an approved protocol (No. 09-2018-2022) and the Ethical Regulations for the Handling of Laboratory Animals (NOM-062-ZOO-1999). Male Nu/Nu (CINVESTAV, I.PN., Mexico City, Mexico) mice, 6–8 weeks of age, were maintained in an aseptic barrier environment. Mice were inoculated by subcutaneous injection of 1 × 10^6 HCC827 cells/0.1 mL PBS into the upper back. Injection sites were monitored periodically for tumor progression. On day ten after tumor cell inoculation, animals were injected with 18.5 MBq (50 µL) of [^99mTc]Tc-iPD-L1 or 18.5 MBq (50 µL) of [^99mTc]Tc-WL12 by tail vein injection. The animals were sacrificed at 1, 3, and 24 h (n = 3). Kidneys, lungs, heart, liver, spleen, pancreas, small intestine, stomach, muscle, and blood and tumor samples were dissected. Radioactivity was determined in a sodium iodide detector. The results were stated as % injected dose/g.
After 24 h, the activity in tumors was 3.21 ± 0.45 %ID/g ([^99mTc]Tc-WL12) and 5.65 ± 0.98 %ID/g ([^99mTc]Tc-iPD-L1). […] This behavior is related to the higher lipophilicity of [^99mTc]Tc-iPD-L1 compared to [^99mTc]Tc-WL12.

In series [5] the target is T1, human recombinant PD-L1 protein (Homo sapiens, UniProt Q9NZQ7).
T1 construct: purchased FineTest P6857
T1 sequence (Q9NZQ7 19-290): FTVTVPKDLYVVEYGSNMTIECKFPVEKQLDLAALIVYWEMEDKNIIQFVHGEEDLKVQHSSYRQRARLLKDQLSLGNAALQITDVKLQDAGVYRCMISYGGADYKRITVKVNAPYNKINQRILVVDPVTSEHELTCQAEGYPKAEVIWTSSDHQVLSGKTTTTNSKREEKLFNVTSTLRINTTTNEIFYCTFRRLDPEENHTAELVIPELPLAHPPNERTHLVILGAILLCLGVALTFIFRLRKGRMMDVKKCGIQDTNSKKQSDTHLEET
As to the kind of experiment: Radio-SDS-PAGE molecular recognition by PD-L1 protein. To be noted: radiopeptide (1 mg/mL) incubated with PD-L1 (200 µg/mL) 30 min at 37 °C; 15% SDS-PAGE, radio-TLC scan. The class given is binding. Here is the method: SDS-PAGE gel electrophoresis was performed. Radioactivity distribution was determined using a radio-TLC scanner (Mini-Gita, 60–150 keV, BGO-Crystal, window 25 × 2 mm, thickness 5 mm, resolution optimized for Tc-99m; RayTest, Munich, Germany) to detect [^99mTc]Tc-iPD-L1 and [^99mTc]Tc-WL12 binding to PD-L1 protein.
Briefly, ^99mTc-labeled WL12 and iPD-L1 solutions (100 µL) (1 mg/mL peptide) were incubated with human recombinant PD-L1 protein (100 µL) (200 µg/mL; FineTest; Cat: P6857) (radiopeptide-PD-L1 interaction) or human integrin αVβ3 protein (100 µL) (negative control; 200 µg/mL) (Chemicom, Merck; Burlington, MA, USA) (radiopeptide-integrin interaction) for 30 min at 37 °C, after which the samples were diluted with Laemmli sample buffer (containing 10% SDS, Tris-Cl 125 mM, pH = 6.8, 12.5% glycerol and 0.005% bromophenol blue after dye) to give final protein concentrations of 25 µg/mL. […] Finally, the radioactivity distribution on the gels was scanned using a radio-TLC detector to determine the percentage of [^99mTc]Tc-iPD-L1 or [^99mTc]Tc-WL12 radioactivity associated with proteins.
In vitro-specific recognition of [^99mTc]Tc-iPD-L1 and [^99mTc]Tc-WL12 by the PD-L1 protein was performed using a combination of radio-TLC and SDS-PAGE (radio-SDS-PAGE). […] Therefore, the radioactivity associated with free peptides is in the front of the gel plate (around 60–70 mm). […]

A value given as a limit tells only on which side of the number the result lay.

With `OC[C@H]1OC(O)[C@H]([18F])[C@@H](O)[C@@H]1O` (some centres unmarked) [[^18F]FDG], the “[18F]FDG Uptake” value was “✓” in series [1] (patient with plantar malignant melanoma, PET/CT, Mediastinal adenopathies level 4R, 8 and 10L up to 12 mm); “✓” in series [1] (same patient, Adenopathies in the entire intramuscular tract of the left lower extremity up to 14 mm); “✓” in series [1] (same patient, Adenopathies of the common, internal, external, and obturator iliac chains up to 26 mm); “✓” in series [1] (same patient, Left femoral adenopathies of 12 mm); “✓” in series [1] (same patient, Left inguinal adenopathies forming clusters of 29 mm); “✓” in series [1] (same patient, Left popliteal hollow adenopathies up to 20 mm). Besides, the “[18F]FDG Uptake” value in series [1] (same patient, Left retrocrural adenopathy of 9 mm) is “✓”; in series [1] (same patient, Liver, poorly defined hypodense images, the largest in segment 7), “✓”; in series [1] (same patient, Retroperitoneal paraaortic and intercavoaortic adenopathies of 14 mm), “✓”; in series [1] (same patient, exophytic lesion in the heel region of the left foot, 67 × 35 mm), “✓”.

As for `CC(C)C[C@@H]1NC(=O)[C@H](CC(C)C)NC(=O)[C@H](Cc2c[nH]c3ccccc23)NC(=O)[C@H](CO)NC(=O)[C@H](Cc2c[nH]c3ccccc23)NC(=O)[C@@H]2CCCN2C(=O)[C@H](CC(C)C)NC(=O)[C@H](Cc2c[nH]cn2)NC(=O)[C@@H]2CCCN2C(=O)[C@H](CC(N)=O)NC(=O)[C@H](C)NC(=O)[C@H](Cc2ccc(O)cc2)NC(=O)[C@H](CS)NC(=O)[C@H](CCCCNC(=O)c2ccc(NN)nc2)NC1=O` [[^99mTc]Tc-iPD-L1, metal not drawn], the “radioactivity bound to serum proteins at 30 min” value in series [2] (30 min) is 1.3 ± 0.8%. Further, in series [2] (3 h), the “radioactivity bound to serum proteins at 3 h” value was 3.2 ± 1.3%. Besides, the “radioactivity bound to serum proteins at 24 h” value in series [2] (24 h) was determined as 7.6 ± 1.9%. Besides, the “stability in human serum” value in series [3] (30 min, 3 h and 24 h, size-exclusion radio-HPLC) was “remained stable”. Besides, in series [3] (24 h, size-exclusion radio-HPLC (ProteinPak 300SW), read-out: radiochemical stability / radiochemical purity in human serum at 24 h), the remaining at 24 h is greater than 90%. Besides, in series [4], the “activity in blood, liver, and kidney compared to [99mTc]Tc-WL12” value is “higher activity in blood, liver, and kidney”. The “radioactivity detected at the distance associated with the PD-L1 protein” value in series [5] was determined as 30%.
